Measured values taken from paper PMC11357256, “Selectivity Screening and Structure–Cytotoxic Activity Observations of Selected Oleanolic Acid (OA)-Type Saponins from the Amaranthaceae Family on a Wiade Panel of Human Cancer Cell Lines” (Molecules, 2024).

Experiments:
[1] = system: Du-145; test: MTT cell viability assay, Du-145 prostate carcinoma cells; format: cell-based; conditions: Homo sapiens
Excerpt: (§1) Cell lines used in the study were grouped as follows: skin panel (melanomas: HTB140, derived from metastatic site: lymph node, ATCC Hs 294 T; malignant A375, ATCC CRL-1619; stage I primary WM793, RRID:CVCL 8787; skin keratinocytes HaCaT); prostate panel (prostate carcinomas: Du145, derived from metastatic site: brain, ATCC HTB-81; grade IV PC3, derived from metastatic site: bone, ATCC CRL-1435, LNCaP, derived from the metastatic site: lymph node, ATCC CRL-1740; prostate epithelial, PNT2, ECACC 95012613); gastrointestinal panel (colorectal adenocarcinomas: Caco2, ATCC HTB-37, HT29, ATCC HTB-38, DLD-1, ATCC CCL-221, HCT116, ATCC CCL-247, and colon epithelial cells CCD 841 CoN, ATCC CRL-1790; hepatocellular carcinoma HepG2, ATCC HB-8065); thyroid panel (follicular thyroid carcinoma FTC133, ECACC 9406090, undifferentiated thyroid carcinoma 8505C, ECACC 94090184, papillary thyroid carcinoma TPC-1, SCC147, normal thyroid follicular epithelial Nthy-ori 3–1, ECACC 90011609); and breast panel (ER-positive breast adenocarcinoma MCF7, ATCC HTB-22; ER-negative breast adenocarcinoma MDA-MB-231, ATCC HTB-26; breast epithelial MCF10A, ATCC CRL-10317). Cells were grown under standard conditions (37 °C, 5% CO2, relative humidity), and culture media (DMEM/F12 for PNT2, WM 793, HT29, PC3, FTC133, 8505 C, MDA-MB-231, TPC-1; DMEM Low Glucose for DU145; DMEM High Glucose for HTB140, A375, HaCaT; MEM with NEAA for Caco2 and MCF7; RPMI1640 with sodium pyruvate for LNCaP; DMEM/F12 with 20 ng/mL epidermal growth factor (EGF), 10 μg/mL insulin, 0.5 μg/mL hydrocortisone, 100 ng/mL cholera toxin) for MCF10A) supplemented with 10% fetal bovine serum (FBS) or 5% donor horse serum for MCF10A, and 1% antibiotics solution (10,000 U penicillin and 10 mg streptomycin/mL) […], as previously described. All cell lines, culture media, and supplements were from Sigma-Aldrich (Germany).
(§2) The cells were seeded in 96-well plates (1.5 × 10^4 cells/well). After 24 h, fresh medium was added, containing the tested compounds (0.5–100 μg/mL) and incubated for 24 or 48 h. Cell viability was determined by MTT assay, according to the manufacturer’s instructions, as described previously. Each experiment was performed in triplicate. The absorbance was measured at 570 nm using a Biotek Synergy microplate reader (BioTek Instruments Inc., Winooski, VT, USA). Cell viability was expressed as a percent of control (untreated cells). Doxorubicin was used as a reference drug.

[2] = system: PC3; test: MTT cell viability assay, PC3 prostate carcinoma cells; format: cell-based; conditions: Homo sapiens, PC-3
Excerpt: as §1, §2

[3] = system: LNCaP; test: MTT cell viability assay, LNCaP prostate adenocarcinoma cells; format: cell-based; conditions: Homo sapiens
Excerpt: as §1, §2

[4] = system: PNT2; test: MTT cell viability assay, PNT2 normal prostate epithelial cells; format: cell-based; conditions: Homo sapiens
Excerpt: as §1, §2

[5] = system: MDA-MB-231; test: MTT cell viability assay, MDA-MB-231 breast adenocarcinoma cells; format: cell-based; conditions: Homo sapiens
Excerpt: as §1, §2

[6] = system: MCF7; test: MTT cell viability assay, MCF7 breast adenocarcinoma cells; format: cell-based; conditions: Homo sapiens
Excerpt: as §1, §2

[7] = system: MCF10A; test: MTT cell viability assay, MCF10A normal breast epithelial cells; format: cell-based; conditions: Homo sapiens, MCF-10A
Excerpt: as §1, §2

[8] = system: FTC133; test: MTT cell viability assay, FTC133 follicular thyroid carcinoma cells; format: cell-based, human; conditions: for IC50: Homo sapiens, FTC-133
Excerpt: as §1, §2
(§3) The selectivity index (SI) was calculated from the following formula:SI = IC50 of compound in a normal cell line/IC50 of compound in cancer cell line.IC50, half maximal inhibitory concentration, is a concentration required to kill 50% of the cells.

[9] = system: 8505C; test: MTT cell viability assay, 8505C undifferentiated thyroid carcinoma cells; format: cell-based, human; conditions: for IC50: Homo sapiens, 8505C; for Selectivity Index (SI): IC50 Nthy-ori 3-1 / IC50 8505C
Excerpt: as §1, §2, §3

[10] = system: TPC-1; test: MTT cell viability assay, TPC-1 papillary thyroid carcinoma cells; format: cell-based, human; conditions: for IC50: Homo sapiens, TPC1
Excerpt: as §1, §2, §3

[11] = system: Nthy-ori 3-1; test: MTT cell viability assay, Nthy-ori 3-1 normal thyroid epithelial cells; format: cell-based; conditions: Homo sapiens
Excerpt: as §1, §2

[12] = system: Caco-2; test: MTT cell viability assay, Caco-2 colon cancer cells; format: cell-based; conditions: Homo sapiens
Excerpt: as §1, §2

[13] = system: HT29; test: MTT cell viability assay, HT29 colorectal adenocarcinoma cells; format: cell-based; conditions: Homo sapiens, HT-29
Excerpt: as §1, §2

[14] = system: HepG2; test: MTT cell viability assay, HepG2 hepatocellular carcinoma cells; format: cell-based; conditions: Homo sapiens
Excerpt: as §1, §2

[15] = system: DLD-1; test: MTT cell viability assay, DLD-1 colon cancer cells; format: cell-based; conditions: Homo sapiens
Excerpt: as §1, §2

[16] = system: HCT116; test: MTT cell viability assay, HCT116 colon cancer cells; format: cell-based; conditions: Homo sapiens, HCT-116
Excerpt: as §1, §2

[17] = system: CCD 841 CoN; test: MTT cell viability assay, CCD 841 CoN normal colon epithelial cells; format: cell-based; conditions: Homo sapiens
Excerpt: as §1, §2

[18] = system: HTB-140; test: MTT cell viability assay, HTB-140 metastatic melanoma cells; format: cell-based, human; conditions: for IC50: Homo sapiens
Excerpt: as §1, §2, §3

[19] = system: A375; test: MTT cell viability assay, A375 malignant melanoma cells; format: cell-based, human; conditions: for IC50: Homo sapiens, A-375; for Selectivity Index (SI): IC50 HaCaT / IC50 A375, 24 h
Excerpt: as §1, §2, §3

[20] = system: WM793; test: MTT cell viability assay, WM793 primary melanoma cells; format: cell-based, human; conditions: for IC50: Homo sapiens
Excerpt: as §1, §2, §3

[21] = system: HaCaT; test: MTT cell viability assay, HaCaT keratinocytes; format: cell-based; conditions: Homo sapiens
Excerpt: as §1, §2

[22] = IC50 Nthy-ori 3-1 / IC50 FTC133, 24 h
[23] = IC50 Nthy-ori 3-1 / IC50 TPC-1, 24 h
[24] = IC50 HaCaT / IC50 HTB-140, 24 h

CC1(C)CC[C@]2(C(=O)O)CC[C@]3(C)C(=CC[C@@H]4[C@@]5(C)CC[C@H](O)C(C)(C)[C@@H]5CC[C@]43C)[C@@H]2C1 [OA, oleanolic acid]
IC50 ([1]; DU-145, 24 h): 23.4 µg/mL
IC50 ([1]; DU-145, 48 h): 12.2 µg/mL
IC50 ([2]; PC3, 24 h): > 100 µg/mL
IC50 ([2]; PC3, 48 h): > 100 µg/mL
IC50 ([3]; 24 h): > 100 µg/mL
IC50 ([3]; 48 h): > 100 µg/mL
IC50 ([4]; 24 h): > 100 µg/mL
IC50 ([4]; 48 h): > 100 µg/mL
IC50 ([5]; MDA-MB-231, 24 h): > 100 µg/mL
IC50 ([5]; MDA-MB-231, 48 h): 38.5 µg/mL
IC50 ([6]; MCF7, 24 h): > 100 µg/mL
IC50 ([6]; MCF7, 48 h): 67 µg/mL
IC50 ([7]; 24 h): > 100 µg/mL
IC50 ([7]; 48 h): > 100 µg/mL
IC50 ([8]; FTC133, 24 h): 13.5 µg/mL
IC50 ([8]; FTC133, 48 h): 4.9 µg/mL
Selectivity Index (SI) [8, 22]: 6.99
Selectivity Index (SI) ([8]; IC50 Nthy-ori 3-1 / IC50 FTC133, 48 h): 14.6
IC50 ([9]; 24 h): 19.5 µg/mL
IC50 ([9]; 48 h): 11.3 µg/mL
Selectivity Index (SI) ([9]; 24 h): 4.8
Selectivity Index (SI) ([9]; 48 h): 6.4
IC50 ([10]; TPC-1, 24 h): 36.6 µg/mL
IC50 ([10]; TPC-1, 48 h): 30 µg/mL
Selectivity Index (SI) [10, 23]: 2.6
Selectivity Index (SI) ([10]; IC50 Nthy-ori 3-1 / IC50 TPC-1, 48 h): 2.4
IC50 ([11]; 24 h): 94.4 µg/mL
IC50 ([11]; 48 h): 71.6 µg/mL
IC50 ([12]; Caco-2, 24 h): 13 µg/mL
IC50 ([12]; Caco-2, 48 h): 8.3 µg/mL
IC50 ([13]; HT29, 24 h): > 100 µg/mL
IC50 ([13]; HT29, 48 h): > 100 µg/mL
IC50 ([14]; HepG2, 24 h): 51.5 µg/mL
IC50 ([14]; HepG2, 48 h): 10.7 µg/mL
IC50 ([15]; DLD-1, 24 h): 48.7 µg/mL
IC50 ([15]; DLD-1, 48 h): 24.5 µg/mL
IC50 ([16]; HCT116, 24 h): 25.6 µg/mL
IC50 ([16]; HCT116, 48 h): 18.5 µg/mL
IC50 ([17]; 24 h): > 100 µg/mL
IC50 ([17]; 48 h): > 100 µg/mL
IC50 ([18]; HTB-140, 24 h): 51.4 µg/mL
IC50 ([18]; HTB-140, 48 h): 29.5 µg/mL
Selectivity Index (SI) [18, 24]: 0.2
Selectivity Index (SI) ([18]; IC50 HaCaT / IC50 HTB-140, 48 h): 0.2
IC50 ([19]; A375, 24 h): 2.2 µg/mL
IC50 ([19]; A375, 48 h): 0.9 µg/mL
Selectivity Index (SI) [19]: 5.2
IC50 ([20]; WM793, 24 h): 2.8 µg/mL
IC50 ([20]; WM793, 48 h): 1.2 µg/mL
Selectivity Index (SI) ([20]; IC50 HaCaT / IC50 WM793, 24 h): 4.0
Selectivity Index (SI) ([20]; IC50 HaCaT / IC50 WM793, 48 h): 6.0
IC50 ([21]; 24 h): 11.2 µg/mL
IC50 ([21]; 48 h): 7.5 µg/mL

COc1cccc2c1C(=O)c1c(O)c3c(c(O)c1C2=O)C[C@@](O)(C(=O)CO)C[C@@H]3O[C@H]1C[C@H](N)[C@H](O)[C@H](C)O1 [DOX, Doxorubicin]
IC50 ([1]; DU-145, 24 h): 3.2 µg/mL
IC50 ([2]; PC3, 24 h): > 50 µg/mL
IC50 ([3]; 24 h): 1.8 µg/mL
IC50 ([4]; 24 h): 1.4 µg/mL
IC50 ([8]; FTC133, 24 h): 4 µg/mL
Selectivity Index (SI) [8, 22]: 6.76
IC50 ([9]; 24 h): > 40 µg/mL
IC50 ([10]; TPC-1, 24 h): 3.9 µg/mL
Selectivity Index (SI) [10, 23]: 7.0
IC50 ([11]; 24 h): 27.2 µg/mL
IC50 ([12]; Caco-2, 24 h): 3.4 µg/mL
IC50 ([13]; HT29, 24 h): 1.5 µg/mL
IC50 ([14]; HepG2, 24 h): 1 µg/mL
IC50 ([15]; DLD-1, 24 h): 1.1 µg/mL
IC50 ([16]; HCT116, 24 h): 4 µg/mL
IC50 ([17]; 24 h): 1.7 µg/mL
IC50 ([18]; HTB-140, 24 h): 5.7 µg/mL
Selectivity Index (SI) [18, 24]: 0.8
IC50 ([19]; A375, 24 h): 0.6 µg/mL
Selectivity Index (SI) [19]: 7.9
IC50 ([20]; WM793, 24 h): > 40 µg/mL
IC50 ([21]; 24 h): 4.7 µg/mL
